Data published in patent US20240226115A1, “AXL INHIBITOR COMPOUNDS” (ARCUS BIOSCIENCES, INC., priority 2021, published 2024).

Key:
recombinant human MER = biological target: T1, recombinant human MER (Homo sapiens, UniProt Q12866); assay: HTRF KinEASE-TK biochemical potency, MER; settings: 1 nM MER, 700 μM ATP
T1 construct: purchased Invitrogen
T1 sequence (Q12866 21-999): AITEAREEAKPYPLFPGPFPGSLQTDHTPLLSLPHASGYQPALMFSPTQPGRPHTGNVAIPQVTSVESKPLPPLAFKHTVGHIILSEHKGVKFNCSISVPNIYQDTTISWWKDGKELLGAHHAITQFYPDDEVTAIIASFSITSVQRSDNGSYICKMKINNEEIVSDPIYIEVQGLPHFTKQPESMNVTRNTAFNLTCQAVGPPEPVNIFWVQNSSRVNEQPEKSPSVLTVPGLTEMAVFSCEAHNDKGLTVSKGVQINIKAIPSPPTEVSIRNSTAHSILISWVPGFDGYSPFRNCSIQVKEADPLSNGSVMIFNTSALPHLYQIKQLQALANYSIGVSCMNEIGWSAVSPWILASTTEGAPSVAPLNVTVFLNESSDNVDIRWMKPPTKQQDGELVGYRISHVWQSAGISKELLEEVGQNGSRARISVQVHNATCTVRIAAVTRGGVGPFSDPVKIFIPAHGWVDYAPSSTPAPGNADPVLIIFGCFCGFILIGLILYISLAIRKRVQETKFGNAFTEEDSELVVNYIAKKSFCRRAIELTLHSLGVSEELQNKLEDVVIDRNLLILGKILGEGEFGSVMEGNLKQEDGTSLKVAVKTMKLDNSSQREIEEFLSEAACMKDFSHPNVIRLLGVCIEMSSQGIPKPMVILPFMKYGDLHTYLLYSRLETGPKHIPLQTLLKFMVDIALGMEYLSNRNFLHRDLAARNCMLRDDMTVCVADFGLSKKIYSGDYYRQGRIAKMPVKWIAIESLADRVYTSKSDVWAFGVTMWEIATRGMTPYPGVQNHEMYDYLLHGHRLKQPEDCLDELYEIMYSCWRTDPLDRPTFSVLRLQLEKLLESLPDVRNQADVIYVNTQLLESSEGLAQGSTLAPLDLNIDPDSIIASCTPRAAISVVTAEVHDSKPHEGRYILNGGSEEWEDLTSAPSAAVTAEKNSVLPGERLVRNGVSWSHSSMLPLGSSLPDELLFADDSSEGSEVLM
Procedure, shortened: (§1)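 Enzyme preincubated with compound 1 h at RT; final 5 nM AXL or 1 nM TYRO3/MER, 800 nM TK substrate-biotin, 700 μM ATP, HEPES pH 7.4, MgCl2, 1% DMSO, 2 h at RT. HTRF 665/620 ratio read after streptavidin-XL665/cryptate antibody detection; percent activity relative to DMSO and pre-stopped controls.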

recombinant human TYRO3 = biological target: T2, recombinant human TYRO3 (Homo sapiens, UniProt Q06418); assay: HTRF KinEASE-TK biochemical potency, TYRO3; settings: 1 nM TYRO3, 700 μM ATP
T2 construct: purchased Invitrogen
T2 sequence (Q06418 41-890): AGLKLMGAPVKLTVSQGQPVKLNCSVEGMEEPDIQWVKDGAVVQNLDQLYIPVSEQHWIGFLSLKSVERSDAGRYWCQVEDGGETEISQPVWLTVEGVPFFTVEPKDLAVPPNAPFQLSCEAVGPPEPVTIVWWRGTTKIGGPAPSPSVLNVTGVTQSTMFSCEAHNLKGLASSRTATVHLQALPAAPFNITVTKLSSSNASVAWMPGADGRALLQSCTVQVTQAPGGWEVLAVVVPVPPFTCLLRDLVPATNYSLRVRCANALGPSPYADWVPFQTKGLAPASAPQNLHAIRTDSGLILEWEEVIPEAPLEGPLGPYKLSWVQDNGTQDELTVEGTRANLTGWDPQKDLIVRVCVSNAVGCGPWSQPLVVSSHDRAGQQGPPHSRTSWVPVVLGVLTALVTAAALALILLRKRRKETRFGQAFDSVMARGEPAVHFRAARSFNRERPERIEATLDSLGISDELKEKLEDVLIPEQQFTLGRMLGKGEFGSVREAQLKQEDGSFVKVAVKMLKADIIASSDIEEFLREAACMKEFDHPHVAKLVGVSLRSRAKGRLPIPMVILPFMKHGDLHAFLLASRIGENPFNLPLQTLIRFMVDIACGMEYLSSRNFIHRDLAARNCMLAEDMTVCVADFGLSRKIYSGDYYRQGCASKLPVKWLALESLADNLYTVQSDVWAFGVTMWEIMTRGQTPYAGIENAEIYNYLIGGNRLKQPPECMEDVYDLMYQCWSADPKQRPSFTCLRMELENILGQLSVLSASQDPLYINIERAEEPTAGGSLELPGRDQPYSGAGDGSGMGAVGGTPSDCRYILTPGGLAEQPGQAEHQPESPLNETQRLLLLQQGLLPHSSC
Procedure, shortened: as §1

Structure (SMILES) | IC50 (recombinant human MER) | IC50 (recombinant human TYRO3)
Cc1c(-c2n[nH]c3ncc(-c4ccc5c(c4)CCC(N4CCC[C@H]4C)CC5)cc23)ccc2c1OCCNC2=O (stereo partly drawn) [Example 41, 9-Methyl-8-(5-{7-[(2R)-2-methylpyrrolidin-1-yl]-6,7,8,9-tetrahydro-5H-benzo[7]annulen-2-yl}-1H-pyrazolo[3,4-b]pyridin-3-yl)-2,3,4,5-tetrahydro-1,4-benzoxazepin-5-one] | 100 to 1000 nM | < 100 nM
O=C1NCCOc2cc(-c3n[nH]c4ncc(-c5ccc6c(c5)CCC(NC5CCCC5)CC6)cc34)ccc21 (stereo not shown) [Example 42, 8-{5-[7-(Cyclopentylamino)-6,7,8,9-tetrahydro-5H-benzo[7]annulen-2-yl]-1H-pyrazolo[3,4-b]pyridin-3-yl}-2,3,4,5-tetrahydro-1,4-benzoxazepin-5-one] | < 100 nM | < 100 nM
C[C@H]1CCCN1C1CCc2ccc(-c3cnc4[nH]nc(-c5ccc6c(c5)OCCNC6=O)c4c3)cc2CC1 (stereo partly drawn) [Example 43, 8-(5-{7-[(2S)-2-Methylpyrrolidin-1-yl]-6,7,8,9-tetrahydro-5H-benzo[7]annulen-2-yl}-1H-pyrazolo[3,4-b]pyridin-3-yl)-2,3,4,5-tetrahydro-1,4-benzoxazepin-5-one] | < 100 nM | < 100 nM
O=C1NCCOc2cc(-c3n[nH]c4ncc(-c5ccc6c(c5)CCC(N[C@H]5CCOC5)CC6)cc34)ccc21 (stereo partly drawn) [Example 45, 8-[5-(7-{[(3S)—Oxolan-3-yl]amino}-6,7,8,9-tetrahydro-5H-benzo[7]annulen-2-yl)-1H-pyrazolo[3,4-b]pyridin-3-yl]-2,3,4,5-tetrahydro-1,4-benzoxazepin-5-one] | < 100 nM | < 100 nM
O=C1NCCOc2cc(-c3n[nH]c4ncc(-c5ccc6c(c5)CCC(N[C@@H]5CCOC5)CC6)cc34)ccc21 (stereo partly drawn) [Example 46, 8-[5-(7-{[(3R)—Oxolan-3-yl]amino}-6,7,8,9-tetrahydro-5H-benzo[7]annulen-2-yl)-1H-pyrazolo[3,4-b]pyridin-3-yl]-2,3,4,5-tetrahydro-1,4-benzoxazepin-5-one] | < 100 nM | < 100 nM
O=C1NCCOc2cc(-c3n[nH]c4ncc(-c5ccc6c(c5)CCC(N5CCOCC5)CC6)cc34)ccc21 (stereo not shown) [Example 47, 8-{5-[7-(Morpholin-4-yl)-6,7,8,9-tetrahydro-5H-benzo[7]annulen-2-yl]-1H-pyrazolo[3,4-b]pyridin-3-yl}-2,3,4,5-tetrahydro-1,4-benzoxazepin-5-one] | < 100 nM | < 100 nM
O=C1NCCOc2cc(-c3n[nH]c4ncc(-c5ccc6c(c5)CCC(N5CCC[C@@H]5CO)CC6)cc34)ccc21 (stereo partly drawn) [Example 49, 8-(5-{7-[(2R)-2-(Hydroxymethyl)pyrrolidin-1-yl]-6,7,8,9-tetrahydro-5H-benzo[7]annulen-2-yl}-1H-pyrazolo[3,4-b]pyridin-3-yl)-2,3,4,5-tetrahydro-1,4-benzoxazepin-5-one] | < 100 nM | < 100 nM
O=C1NCCOc2cc(-c3n[nH]c4ncc(-c5ccc6c(c5)CCC(N5CCC[C@H]5CO)CC6)cc34)ccc21 (stereo partly drawn) [Example 50, 8-(5-{7-[(2S)-2-(Hydroxymethyl)pyrrolidin-1-yl]-6,7,8,9-tetrahydro-5H-benzo[7]annulen-2-yl}-1H-pyrazolo[3,4-b]pyridin-3-yl)-2,3,4,5-tetrahydro-1,4-benzoxazepin-5-one] | < 100 nM | < 100 nM
C[C@@H]1CCCN1C1CCc2cc(F)c(-c3cnc4[nH]nc(-c5ccc6c(c5)OCCNC6=O)c4c3)cc2CC1 (stereo partly drawn) [Example 58, 8-(5-{3-Fluoro-7-[(2R)-2-methylpyrrolidin-1-yl]-6,7,8,9-tetrahydro-5H-benzo[7]annulen-2-yl}-1H-pyrazolo[3,4-b]pyridin-3-yl)-2,3,4,5-tetrahydro-1,4-benzoxazepin-5-one] | < 100 nM | < 100 nM
C[C@@H]1CNC(=O)c2ccc(-c3n[nH]c4ncc(-c5ccc6c(c5)CCC(N5CCC[C@H]5C)CC6)cc34)cc2O1 (stereo partly drawn) [Example 59, (2R)-2-Methyl-8-(5-{7-[(2R)-2-methylpyrrolidin-1-yl]-6,7,8,9-tetrahydro-5H-benzo[7]annulen-2-yl}-1H-pyrazolo[3,4-b]pyridin-3-yl)-2,3,4,5-tetrahydro-1,4-benzoxazepin-5-one] | < 100 nM | < 100 nM

Next, values leading:

IC50 (recombinant human MER) | IC50 (recombinant human TYRO3) | Structure (SMILES)
< 100 nM | < 100 nM | C[C@@H]1CCCN1C1CCc2ccc(-c3cnc4[nH]nc(-c5ccc6c(c5)OCCNC6=O)c4c3)cc2CC1 (stereo partly drawn) [Example 44, 8-(5-{7-[(2R)-2-Methylpyrrolidin-1-yl]-6,7,8,9-tetrahydro-5H-benzo[7]annulen-2-yl}-1H-pyrazolo[3,4-b]pyridin-3-yl)-2,3,4,5-tetrahydro-1,4-benzoxazepin-5-one]
< 100 nM | < 100 nM | O=C1NCCOc2cc(-c3n[nH]c4ncc(-c5ccc6c(c5)CCC(N5CCNCC5)CC6)cc34)ccc21 (stereo not shown) [Example 48, 8-{5-[7-(Piperazin-1-yl)-6,7,8,9-tetrahydro-5H-benzo[7]annulen-2-yl]-1H-pyrazolo[3,4-b]pyridin-3-yl}-2,3,4,5-tetrahydro-1,4-benzoxazepin-5-one]
100 to 1000 nM | < 100 nM | O=C1NCCOc2cc(-c3n[nH]c4ncc(-c5ccc6c(c5)CCC(N5CC[C@@H](O)C5)CC6)cc34)ccc21 (stereo partly drawn) [Example 51, 8-(5-(7-((R)-3-Hydroxypyrrolidin-1-yl)-6,7,8,9-tetrahydro-5H-benzo[7]annulen-2-yl)-1H-pyrazolo[3,4-b]pyridin-3-yl)-3,4-dihydrobenzo[f][1,4]oxazepin-5(2H)-one]
< 100 nM | < 100 nM | O=C1NCCOc2cc(-c3n[nH]c4ncc(-c5ccc6c(c5)CCC(N5CCC5)CC6)cc34)ccc21 (stereo not shown) [Example 52, 8-(5-(7-(Azetidin-1-yl)-6,7,8,9-tetrahydro-5H-benzo[7]annulen-2-yl)-1H-pyrazolo[3,4-b]pyridin-3-yl)-3,4-dihydrobenzo[f][1,4]oxazepin-5(2H)-one]
< 100 nM | < 100 nM | O=C1NCCOc2cc(-c3n[nH]c4ncc(-c5ccc6c(c5)CCNCC6)cc34)ccc21 [Example 53, 8-(5-(2,3,4,5-Tetrahydro-1H-benzo[d]azepin-7-yl)-1H-pyrazolo[3,4-b]pyridin-3-yl)-3,4-dihydrobenzo[f][1,4]oxazepin-5(2H)-one]
100 to 1000 nM | < 100 nM | O=C1NCCOc2cc(-c3n[nH]c4ncc(-c5ccc6c(c5)CCNC6)cc34)ccc21 [Example 54, 8-(5-(1,2,3,4-Tetrahydroisoquinolin-6-yl)-1H-pyrazolo[3,4-b]pyridin-3-yl)-3,4-dihydrobenzo[f][1,4]oxazepin-5(2H)-one]
100 to 1000 nM | < 100 nM | O=C1NCCOc2cc(-c3n[nH]c4ncc(-c5ccc6c(c5)CNCC6)cc34)ccc21 [Example 55, 8-(5-(1,2,3,4-Tetrahydroisoquinolin-7-yl)-1H-pyrazolo[3,4-b]pyridin-3-yl)-3,4-dihydrobenzo[f][1,4]oxazepin-5(2H)-one]
